Columns and labels:
Assay type in all cases: cell-based, Human
MSC cells = experiment: MTT cytotoxicity assay on normal cells; settings: 72 h
Procedure: (§1) The cytotoxic behaviors of MITO-DCA, TPP-DCA, Na-DCA, and TPP-Tris-(OH)3 were evaluated using the MTT assay against PC3, DU145, LNCaP, and MSC cells. Cells (2000 cells/well for PC3, DU145, and MSC cells; 5000 cells/well for LNCaP) were seeded on a 96-well plate in 100 μL of desired medium and incubated for 24 h. The cells were treated with different DCA compounds and TPP-Tris-(OH)3 at varying concentrations and incubated for 72 h at 37° C. The cells were then treated with 20 μL of MTT (5 mg/mL in PBS) for 5 h. The medium was removed, the cells were lysed with 100 μL of DMSO, and the absorbance of the purple tormazan was recorded at 550 nm using a Bio-Tek Synergy HT microplate reader. Each well was performed in triplicate. All experiments were repeated three times. Cytotoxicity was expressed as mean percentage increase relative to the unexposed control±SD. Control values were set at 0% cytotoxicity or 100% cell viability. Cytotoxicity data (where appropriate) was fitted to a sigmoidal curve and a three parameters logistic model used to calculate the IC50, which is the concentration of chemotherapeutics causing 50% inhibition in comparison to untreated controls. The mean IC50 is the concentration of agent that reduces cell growth by 50% under the experimental conditions and is the average from at least three independent measurements that were reproducible and statistically significant. The IC50 values were reported at ±99% confidence intervals. This analysis was performed with GraphPad Prism (San Diego, U.S.A).

PC3 cells [1] = experiment: Intracellular lactate determination; settings: concentration not given
From the text: Cytosolic metabolism of glucose to pyruvate occurs before its entry into mitochondria for oxidative phosphorylation. However, if not metabolized through oxidative phosphorylation as found in cancer, pyruvate gets converted by lactate dehydrogenase through glycolysis to lactate. Glycolysis in the absence of oxidative phosphorylation in cancer causes rise in lactate concentration. To test the ability of MITO-DCA to switch glucose metabolism from glycolysis to oxidative phosphorylation in cancer cells, intracellular lactate levels in glycolytic PC3 cells were measured and compared the value with those observed in less glycolytic LNCaP and normal MSC cells (FIG. 5A). To understand the importance of mitochondria targeting ligand and to explore the importance of a Tris platform to increase number of DCA molecule per targeting ligand, the parent drug Na-DCA and TPP-DCA were used as controls. Treatment of PC3 cells with 50 μM of MITO-DCA for 6 h reduced the intracellular lactate levels by 58±5%. […] Pronounced lactate concentration differences were observed between […] glycolytic PC3 and healthy MSC cells (FIG. 5A). […] None of the DCA compounds has any effect on the lactate levels in MSC cells (FIG. 5A).
PC3, LNCaP, and MSC cells were seeded at a density of 1×10^6 cells/mL on each well of a 12 well plate and allowed to grow overnight at 37° C. under 5% CO2. Cells were treated with 150 μM Na-DCA, 150 μM TPP-DCA, and 50 μM MITO-DCA for 6 h at 37° C. After 6 h, the media was removed and the cells were homogenized. The lysate was added to the enzyme and substrate working reagent mixture and incubated for 30 min. Lactate concentration was measured using Bio-Tek Synergy HT microplate reader at 450 nm and comparing to a standard curve.

DU145 cells = experiment: MTT cytotoxicity assay; settings: DU145 cells, MTT
Procedure: as §1

PC3 cells [2] = experiment: MTT cytotoxicity assay; settings: PC3 cells, MTT
Procedure: as §1

LNCaP cells = experiment: MTT cytotoxicity assay; settings: LNCaP cells, MTT
Procedure: as §1

O=C(CCCCC[P+](c1ccccc1)(c1ccccc1)c1ccccc1)NC(CO)(CO)CO.[Br-] [TPP-Tris-(OH)3]
Toxicity in normal MSC cells (MSC cells): did not show any toxic effects
Effect on intracellular lactate levels (PC3 cells [1]): did not show any effect
Toxic effects (cytotoxicity profile) (DU145 cells): did not show any toxic effects
Toxic effects (cytotoxicity profile) (PC3 cells [2]): did not show any toxic effects
Toxic effects (cytotoxicity profile) (LNCaP cells): did not show any toxic effects

Source: patent publication US10004809B2, “Precise delivery of therapeutic agents to cell mitochondria for anti-cancer therapy” (UNIVERSITY OF GEORGIA RESEARCH FOUNDATION, INC., priority 2013, dated 2018)
